From ChEMBL document CHEMBL1201862, “PubChem BioAssay data set” (2004)
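Where inhibition never reached the appropriate level, the endpoint shown equals the highest concentration tested. Otherwise, values were interpolated linearly from a five-concentration, 48-hour dose response in 96-well plates. At the GI50, growth is halved.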 The source made the active and inactive calls. No stated cut-off is given here; in the data, active = GI50 up to about 1.1 µM and inactive = higher.

What was measured:
Experiment in all cases: inhibition of tumour cell growth, NCI panel, 48 h
SW-620 = test system: SW-620
SF-295 = test system: SF-295
OVCAR-3 = test system: OVCAR-3
CCRF-CEM = test system: CCRF-CEM
LOX IMVI = test system: LOX IMVI
T47D = test system: T47D
A549 = test system: A549
KM12 = test system: KM12
UACC-257 = test system: UACC-257
RXF 393 = test system: RXF 393
SK-MEL-28 = test system: SK-MEL-28
NCI-H226 = test system: NCI-H226
K562 = test system: K562
M14 = test system: M14
SNB-75 = test system: SNB-75
NCI-H522 = test system: NCI-H522
IGROV-1 = test system: IGROV-1
HL-60 = test system: HL-60
RPMI-8226 = test system: RPMI-8226
HCC 2998 = test system: HCC 2998
786-0 = test system: 786-0
BT-549 = test system: BT-549
TK-10 = test system: TK-10
SR = test system: SR
NCI-H23 = test system: NCI-H23
SF-268 = test system: SF-268
MOLT-4 = test system: MOLT-4
OVCAR-8 = test system: OVCAR-8
OVCAR-4 = test system: OVCAR-4
SN12C = test system: SN12C
HCT-15 = test system: HCT-15
SK-MEL-5 = test system: SK-MEL-5
COLO 205 = test system: COLO 205
MCF7 = test system: MCF7
ACHN = test system: ACHN
Malme-3M = test system: Malme-3M
MDA-MB-231 = test system: MDA-MB-231
SNB-19 = test system: SNB-19
DU-145 = test system: DU-145
HOP-92 = test system: HOP-92
UACC-62 = test system: UACC-62
OVCAR-5 = test system: OVCAR-5
MDA-MB-435 = test system: MDA-MB-435
HT-29 = test system: HT-29
SK-MEL-2 = test system: SK-MEL-2
U-251 = test system: U-251
NCI-H460 = test system: NCI-H460
Hs-578T = test system: Hs-578T
UO-31 = test system: UO-31
MDA-N = test system: MDA-N
EKVX = test system: EKVX
HOP-62 = test system: HOP-62
CAKI-1 = test system: CAKI-1
PC-3 = test system: PC-3
SF-539 = test system: SF-539
SK-OV-3 = test system: SK-OV-3
HCT-116 = test system: HCT-116
A498 = test system: A498

`CC1(O)/C(=N/O)CC2CC1C2(C)C` (configuration not stated) was tested, and the GI50 (SW-620) was > 100 µM (inactive), the GI50 (SF-295) was > 100 µM (inactive) and the GI50 (OVCAR-3) was > 100 µM (inactive). The GI50 (CCRF-CEM) was > 100 µM (inactive), the GI50 (LOX IMVI) was > 100 µM (inactive) and the GI50 (T47D) was > 100 µM (inactive). For the same compound, the GI50 (A549) was > 100 µM (inactive), the GI50 (KM12) was > 100 µM (inactive) and the GI50 (UACC-257) was > 100 µM (inactive). For the same compound, the GI50 (RXF 393) was > 100 µM (inactive), the GI50 (SK-MEL-28) was > 100 µM (inactive) and the GI50 (NCI-H226) was > 100 µM (inactive). The GI50 (K562) was > 100 µM (inactive), the GI50 (M14) was > 100 µM (inactive) and the GI50 (SNB-75) was > 100 µM (inactive). For the same compound, the GI50 (NCI-H522) was > 100 µM (inactive), the GI50 (IGROV-1) was > 100 µM (inactive) and the GI50 (HL-60) was > 100 µM (inactive). The GI50 (RPMI-8226) was > 100 µM (inactive), the GI50 (HCC 2998) was > 100 µM (inactive) and the GI50 (786-0) was > 100 µM (inactive). For the same compound, the GI50 (BT-549) was > 100 µM (inactive), the GI50 (TK-10) was > 100 µM (inactive) and the GI50 (SR) was > 10 µM (inactive). For the same compound, the GI50 (NCI-H23) was > 100 µM (inactive), the GI50 (SF-268) was > 100 µM (inactive) and the GI50 (MOLT-4) was > 100 µM (inactive). The GI50 (OVCAR-8) was > 100 µM (inactive), the GI50 (OVCAR-4) was > 100 µM (inactive) and the GI50 (SN12C) was > 100 µM (inactive). The GI50 (HCT-15) was > 100 µM, the GI50 (SK-MEL-5) was > 100 µM (inactive) and the GI50 (COLO 205) was > 100 µM (inactive). For the same compound, the GI50 (MCF7) was > 100 µM (inactive), the GI50 (ACHN) was > 100 µM (inactive) and the GI50 (Malme-3M) was > 100 µM (inactive). The GI50 (MDA-MB-231) was > 100 µM (inactive), the GI50 (SNB-19) was > 100 µM (inactive) and the GI50 (DU-145) was > 100 µM (inactive). For the same compound, the GI50 (HOP-92) was > 100 µM (inactive), the GI50 (UACC-62) was > 100 µM (inactive) and the GI50 (OVCAR-5) was > 100 µM (inactive). The GI50 (MDA-MB-435) was > 100 µM (inactive), the GI50 (HT-29) was > 100 µM (inactive) and the GI50 (SK-MEL-2) was > 100 µM (inactive). For the same compound, the GI50 (U-251) was > 100 µM (inactive), the GI50 (NCI-H460) was > 100 µM (inactive) and the GI50 (Hs-578T) was > 100 µM (inactive). For the same compound, the GI50 (UO-31) was > 100 µM (inactive) and the GI50 (MDA-N) was > 100 µM (inactive).

With `CCOP(=O)(OCC)[C@]12C[C@@H](C)C=C[C@H]1COC2=O` the GI50 (SW-620) was > 100 µM (inactive), the GI50 (EKVX) was > 100 µM (inactive) and the GI50 (SF-295) was > 100 µM (inactive). The GI50 (OVCAR-3) was > 100 µM (inactive), the GI50 (CCRF-CEM) was > 100 µM (inactive) and the GI50 (LOX IMVI) was > 100 µM (inactive). For the same compound, the GI50 (T47D) was > 100 µM (inactive), the GI50 (HOP-62) was > 100 µM (inactive) and the GI50 (CAKI-1) was > 100 µM (inactive). The GI50 (A549) was > 100 µM (inactive), the GI50 (KM12) was > 100 µM (inactive) and the GI50 (UACC-257) was > 100 µM (inactive). For the same compound, the GI50 (RXF 393) was > 100 µM (inactive), the GI50 (PC-3) was > 100 µM (inactive) and the GI50 (SK-MEL-28) was > 100 µM (inactive). For the same compound, the GI50 (K562) was > 100 µM (inactive), the GI50 (M14) was > 100 µM (inactive) and the GI50 (SNB-75) was > 100 µM (inactive). For the same compound, the GI50 (NCI-H522) was > 100 µM (inactive), the GI50 (SF-539) was > 100 µM (inactive) and the GI50 (RPMI-8226) was > 100 µM (inactive). The GI50 (HCC 2998) was > 100 µM (inactive), the GI50 (786-0) was > 100 µM (inactive) and the GI50 (BT-549) was > 100 µM (inactive). The GI50 (TK-10) was > 100 µM (inactive), the GI50 (SR) was > 100 µM (inactive) and the GI50 (NCI-H23) was > 100 µM (inactive). The GI50 (SF-268) was > 100 µM (inactive), the GI50 (SK-OV-3) was > 100 µM (inactive) and the GI50 (MOLT-4) was > 100 µM (inactive). The GI50 (OVCAR-8) was > 100 µM (inactive), the GI50 (OVCAR-4) was > 100 µM (inactive) and the GI50 (SN12C) was > 100 µM (inactive). For the same compound, the GI50 (SK-MEL-5) was > 100 µM (inactive), the GI50 (COLO 205) was > 100 µM (inactive) and the GI50 (MCF7) was > 100 µM (inactive). For the same compound, the GI50 (ACHN) was > 100 µM (inactive), the GI50 (Malme-3M) was > 100 µM (inactive) and the GI50 (MDA-MB-231) was > 100 µM (inactive). The GI50 (SNB-19) was > 100 µM (inactive), the GI50 (DU-145) was > 100 µM (inactive) and the GI50 (UACC-62) was > 100 µM (inactive). The GI50 (OVCAR-5) was > 100 µM (inactive), the GI50 (MDA-MB-435) was > 100 µM (inactive) and the GI50 (SK-MEL-2) was > 100 µM (inactive). For the same compound, the GI50 (U-251) was > 100 µM (inactive), the GI50 (NCI-H460) was > 100 µM (inactive) and the GI50 (Hs-578T) was > 100 µM (inactive). The GI50 (HCT-116) was > 100 µM (inactive), the GI50 (UO-31) was > 100 µM (inactive) and the GI50 (A498) was > 100 µM (inactive). The GI50 (MDA-N) was > 100 µM (inactive).
